Measurements: patent publication US20160194380A1, “POTENT INHIBITORS OF HUMAN MATRIPTASE DERIVED FROM MCOTI-II VARIANTS” (MERCK PATENT GMBH, priority 2013, published 2016)
Where a SMILES comes first, the peptide text is derived from it. Bridges are numbered along the chain shown (N, C = ends).

Experiments:
[1] = molecular target: T1, Bovine pancreatic trypsin (Bos taurus, UniProt P00760); assay: Protease inhibition assay, trypsin; assay type: biochemical; conditions: substrate-independent inhibition constant
T1 construct: purchased Sigma-Aldrich; host or cells: bovine pancreas
T1 sequence (P00760 24-246): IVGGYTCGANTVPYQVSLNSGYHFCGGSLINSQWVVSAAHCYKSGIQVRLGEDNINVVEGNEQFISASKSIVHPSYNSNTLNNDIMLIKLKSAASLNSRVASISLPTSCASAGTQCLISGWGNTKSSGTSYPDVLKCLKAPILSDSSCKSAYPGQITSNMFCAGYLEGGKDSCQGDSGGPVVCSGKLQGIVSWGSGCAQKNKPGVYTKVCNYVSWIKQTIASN
Experimental: (§1) D: Biol. Crystallogr., 69(2013), 114-120; Reinwarth, ChemBioChem, 14(2013), 137-146; Boy, Mol. Imaging Biol. 12(2010), 377-385] Measurements were carried out in triplicates using a Tecan Genios ELISA reader.

Human matriptase-1 [2] = molecular target: T2, Human matriptase-1 (Homo sapiens, UniProt Q9Y5Y6); assay: Protease inhibition assay, matriptase-1; assay type: biochemical; conditions: substrate-independent inhibition constant
T2 construct: made in house
T2 sequence (Q9Y5Y6 615-855 limits assumed): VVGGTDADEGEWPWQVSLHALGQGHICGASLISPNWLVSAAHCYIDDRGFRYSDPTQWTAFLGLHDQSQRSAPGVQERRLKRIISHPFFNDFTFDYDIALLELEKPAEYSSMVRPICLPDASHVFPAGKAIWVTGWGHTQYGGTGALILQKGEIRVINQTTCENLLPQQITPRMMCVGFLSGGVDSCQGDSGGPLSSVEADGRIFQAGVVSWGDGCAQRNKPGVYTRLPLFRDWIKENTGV
Experimental: as §1

Human matriptase-1 [3] = assay: Protease inhibition assay, matriptase-1; assay type: biochemical; conditions: matriptase-1 versus trypsin
Experimental: as §1

[4] = test system: pro-uPA activation by matriptase-1 on human prostate carcinoma cancer cells (PC-3); assay: Cell inhibition assay: inhibition of pro-uPA activation on PC-3 cells; assay type: cell-based; conditions: overnight incubation, read-out: IC50 (uPA substrate turnover, indirect determination)
Experimental: Urokinase-type plasminogen activator (uPA) causes the degradation of the extracellular matrix and plays a critical role in tumor invasion and metastasis.
Human prostate cancer cells (PC-3, Merck KGaA) were cultured in DMEM medium with 10% FCS at 37° C. and 5% CO2, washed with cation-free PBS and harvested by scraping. In the following 1×10^5 cells were incubated in presence of 250 μM Bz-β-Ala-Gly-Arg-pNA.AcOH (American Diagnostica) and the inhibitor of interest in defined dilutions overnight. Product formation was monitored at 405 nm before and after incubation in a microplate reader. IC50 was calculated by non-linear regression using SigmaPlot 11.

matriptase-1 = molecular target: T3, matriptase-1 (Homo sapiens, UniProt Q9Y5Y6); conditions: literature; cited from earlier work
T3 sequence (Q9Y5Y6 1-855): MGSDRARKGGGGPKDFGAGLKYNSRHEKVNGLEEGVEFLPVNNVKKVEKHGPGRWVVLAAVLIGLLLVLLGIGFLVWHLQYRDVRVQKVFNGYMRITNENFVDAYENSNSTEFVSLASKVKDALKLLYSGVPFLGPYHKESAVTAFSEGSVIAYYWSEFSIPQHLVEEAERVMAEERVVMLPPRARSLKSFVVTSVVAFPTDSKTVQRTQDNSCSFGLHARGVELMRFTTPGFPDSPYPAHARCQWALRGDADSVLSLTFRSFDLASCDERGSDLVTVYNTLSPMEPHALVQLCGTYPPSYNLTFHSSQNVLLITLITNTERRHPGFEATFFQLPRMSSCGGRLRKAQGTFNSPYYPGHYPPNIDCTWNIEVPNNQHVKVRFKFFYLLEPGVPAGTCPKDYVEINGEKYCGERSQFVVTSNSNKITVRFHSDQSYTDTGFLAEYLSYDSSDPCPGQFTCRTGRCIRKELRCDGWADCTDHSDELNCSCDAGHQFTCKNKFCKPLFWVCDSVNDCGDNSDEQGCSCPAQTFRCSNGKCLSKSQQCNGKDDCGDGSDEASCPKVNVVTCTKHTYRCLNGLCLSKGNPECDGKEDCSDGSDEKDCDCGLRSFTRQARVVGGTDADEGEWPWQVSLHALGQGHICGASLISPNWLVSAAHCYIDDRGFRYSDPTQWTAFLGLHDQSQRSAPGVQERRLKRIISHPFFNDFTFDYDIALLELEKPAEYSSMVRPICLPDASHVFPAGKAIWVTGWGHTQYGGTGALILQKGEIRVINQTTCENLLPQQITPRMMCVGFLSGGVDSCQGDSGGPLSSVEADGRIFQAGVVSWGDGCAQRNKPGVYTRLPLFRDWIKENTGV

| Molecule | Ki [1] | Ki (Human matriptase-1 [2]) | Inhibitory activity for matriptase-1 relative to trypsin (Human matriptase-1 [3]) | IC50 [4] | Ki (matriptase-1), previously reported (matriptase-1) | Selectivity, previously reported (matriptase-1) |
| --- | --- | --- | --- | --- | --- | --- |
| CC[C@H](C)[C@H](N)C(=O)NCC(=O)N[C@H](C(=O)N[C@H]1CSSC[C@@H]2NC(=O)[C@H](C)NC(=O)CNC(=O)[C@@H]3CCCN3C(=O)[C@@H]3CSSC[C@@H](C(=O)NCC(N)=O)NC(=O)[C@H](Cc4ccc(O)cc4)NC(=O)CNC(=O)[C@H](CC(N)=O)NC(=O)CNC(=O)[C@H](CCCNC(=N)N)NC(=O)[C@H](CSSC[C@H](NC(=O)[C@H](C)NC(=O)[C@H](CCCNC(=N)N)NC(=O)[C@H](CC(C)C)NC(=O)[C@H](CC(C)C)NC(=O)[C@H](CCCCN)NC(=O)[C@@H]4CCCN4C1=O)C(=O)N[C@@H](CCCNC(=N)N)C(=O)N[C@@H](CCCNC(=N)N)C(=O)N[C@@H](CC(=O)O)C(=O)N[C@@H](CO)C(=O)N[C@@H](CC(=O)O)C(=O)N3)NC(=O)[C@H]([C@@H](C)CC)NC2=O)C(C)C [Inhibitor 4] (H-IGVCPKLLRACRRDSDCPGACICRGNGYCG-NH2; disulfide 4-21, 11-23, 17-29) | 31.7 ± 4.3 nM | 4.4 ± 0.6 nM |  |  |  |  |
| CC[C@H](C)[C@@H]1NC(=O)[C@@H]2CSSC[C@H](NC(=O)[C@H](CCCNC(=N)N)NC(=O)[C@H](CCCNC(=N)N)NC(=O)[C@@H](N)CC(N)=O)C(=O)N3CCC[C@H]3C(=O)N[C@@H](CCCCN)C(=O)N[C@@H](C(C)C)C(=O)N[C@@H](CC(C)C)C(=O)N[C@@H](CCCCN)C(=O)N[C@@H](C)C(=O)N[C@H]3CSSC[C@H](NC1=O)C(=O)N[C@@H](CCCNC(=N)N)C(=O)NCC(=O)N[C@@H](CC(N)=O)C(=O)NCC(=O)N[C@@H](Cc1ccc(O)cc1)C(=O)N[C@H](C(=O)NCC(N)=O)CSSC[C@H](NC(=O)[C@H](CC(=O)O)NC(=O)[C@H](CO)NC(=O)[C@H](CC(=O)O)NC(=O)[C@H](CCCNC(=N)N)NC(=O)[C@H](CCCNC(=N)N)NC3=O)C(=O)N1CCC[C@H]1C(=O)NCC(=O)N[C@@H](C)C(=O)N2 [Inhibitor 5] | 19.2 ± 2.8 nM | 3.3 ± 0.4 nM |  |  |  |  |
| CC[C@H](C)[C@@H]1NC(=O)[C@@H]2CSSC[C@H](NC(=O)[C@@H](NC(=O)CNC(=O)[C@@H](N)CCCCN)C(C)C)C(=O)N3CCC[C@H]3C(=O)N[C@@H](CCCCN)C(=O)N[C@@H](C(C)C)C(=O)N[C@@H](CC(C)C)C(=O)N[C@@H](CCCNC(=N)N)C(=O)N[C@@H](CCCCN)C(=O)N[C@H]3CSSC[C@H](NC1=O)C(=O)N[C@@H](CCCNC(=N)N)C(=O)N[C@@H](C)C(=O)N[C@@H](CC(N)=O)C(=O)NCC(=O)N[C@@H](Cc1ccc(O)cc1)C(=O)N[C@H](C(=O)NCC(N)=O)CSSC[C@H](NC(=O)[C@H](CC(=O)O)NC(=O)[C@H](CO)NC(=O)[C@H](CC(=O)O)NC(=O)[C@H](CCCCN)NC(=O)[C@H](CCCNC(=N)N)NC3=O)C(=O)N1CCC[C@H]1C(=O)NCC(=O)N[C@@H](C)C(=O)N2 [Inhibitor 6] (H-KGVCPKVLRKCRKDSDCPGACICRANGYCG-NH2; disulfide 4-21, 11-23, 17-29) | 22.3 ± 3 nM | 7.8 ± 1 nM |  |  |  |  |
| CC[C@H](C)[C@@H]1NC(=O)[C@@H]2CSSC[C@H](NC(=O)[C@@H](NC(=O)CNC(=O)[C@@H](N)Cc3c[nH]c4ccccc34)C(C)C)C(=O)N3CCC[C@H]3C(=O)N[C@@H](CCCCN)C(=O)N[C@@H](C(C)C)C(=O)N[C@@H](CC(C)C)C(=O)N[C@@H](CCCNC(=N)N)C(=O)N[C@@H](CC(N)=O)C(=O)N[C@H]3CSSC[C@H](NC1=O)C(=O)N[C@@H](CC(C)C)C(=O)NCC(=O)N[C@@H](CC(N)=O)C(=O)NCC(=O)N[C@@H](Cc1ccc(O)cc1)C(=O)N[C@H](C(=O)NCC(N)=O)CSSC[C@H](NC(=O)[C@H](CC(=O)O)NC(=O)[C@H](CO)NC(=O)[C@H](CC(=O)O)NC(=O)[C@H](CCCNC(=N)N)NC(=O)[C@H](CCCNC(=N)N)NC3=O)C(=O)N1CCC[C@H]1C(=O)NCC(=O)N[C@@H](C)C(=O)N2 [Inhibitor 7] (H-WGVCPKVLRNCRRDSDCPGACICLGNGYCG-NH2; disulfide 4-21, 11-23, 17-29; N-terminus assumed) | 35.8 ± 4.7 nM | 0.83 ± 0.14 nM | approximately fortyfold | 213 nM |  |  |
| H-R-Q-A-R-Bt |  |  |  |  | picomolar | low selectivity |
